Source: US9333172B2, “Topical skin care composition” (GALDERMA S.A., priority 2002, dated 2016)

Settings: in vivo

Row | Percutaneous absorption of unchanged drug into the systemic circulation | Post-dose plasma concentrations | Number of subjects with quantifiable plasma concentrations (human, 8 weeks) | Subjects with quantifiable plasma concentrations (human, 8 weeks) [%] | Compound
1 | minimal | undetectably low | – | – | CC1(C)O[C@@H]2C[C@H]3[C@@H]4C[C@H](F)C5=CC(=O)C=C[C@]5(C)[C@@]4(F)[C@@H](O)C[C@]3(C)[C@]2(C(=O)CO)O1 [fluocinolone acetonide, (6,11,16)-6,9-difluoro-11,21-dihydroxy-16,17-[(1-methylethylidene)bis(oxy)]-pregna-1,-4-diene-3,20-dione]
2 | minimal | undetectably low | 8 | 18 | Oc1ccc(O)cc1 [hydroquinone, 1,4-benzenediol]
3 | minimal | – | – | – | CC1=C(/C=C/C(C)=C/C=C/C(C)=C/C(=O)O)C(C)(C)CCC1 [tretinoin, (all-E)-3,7-dimethyl-9-(2,6,6-trimethyl-1-cyclohexen-1-yl)-2,4,6,8-nonatetraenoic acid]
